Experimental data as given in ChEMBL document CHEMBL1201862, “PubChem BioAssay data set” (2004).
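Protocol summary: plate cells (96-well), add compound at 5 concentrations, incubate 48 h, interpolate endpoints linearly. Abbreviation: GI50, concentration required for 50% inhibition of growth.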 Active and inactive are the calls of the source. Cut-off read from the data, not from the text of the source: active = GI50 up to about 1.1 µM and inactive = higher.

Tests used:
Assay in all cases: NCI-60 cell line screen, 48 h
DLD-1 = tested on: DLD-1
DMS-114 = tested on: DMS-114
DMS-273 = tested on: DMS-273
HOP-18 = tested on: HOP-18
KM-20L2 = tested on: KM-20L2
RXF 631 = tested on: RXF 631
SNB-78 = tested on: SNB-78
LXFL 529 = tested on: LXFL 529
XF498 = tested on: XF498

Measured: GI50

CC(=O)NNc1nc(C)c(C(=O)/C=C/c2ccc(Cl)c(Cl)c2)s1
inactive: DLD-1 > 100 µM | DMS-114 > 100 µM | DMS-273 > 100 µM | HOP-18 > 100 µM | KM-20L2 > 100 µM | RXF 631 > 100 µM | SNB-78 > 100 µM

Cc1ccc(NC(=O)CC2C(=O)Nc3ccccc3S2(=O)=O)cc1C (configuration not stated)
inactive: DLD-1 > 100 µM | DMS-114 > 100 µM | DMS-273 > 100 µM | KM-20L2 > 100 µM | LXFL 529 > 100 µM | RXF 631 > 100 µM | SNB-78 > 100 µM | XF498 > 100 µM

O=C(Nc1ccc(Cl)cc1)/C(Cc1cccc[n+]1[O-])=N\Nc1ccc([N+](=O)[O-])cc1[N+](=O)[O-]
inactive: DLD-1 > 100 µM | DMS-114 > 100 µM | DMS-273 > 100 µM | KM-20L2 > 100 µM | LXFL 529 > 100 µM | RXF 631 > 100 µM | SNB-78 > 100 µM

COC(=O)/C(=C/c1ccc(OC)cc1)C(C(=O)O)=C1CCCCC1
inactive: DLD-1 > 100 µM | DMS-273 > 100 µM | KM-20L2 > 100 µM | LXFL 529 > 100 µM | RXF 631 > 100 µM | SNB-78 > 100 µM | XF498 > 100 µM

CC(=O)OC(C)(C)C1CCC(C)(C(O)COc2ccc(CCNC(=O)c3ccccc3)cc2)O1 (configuration not stated)
inactive: DLD-1 31.5 µM | DMS-114 12.5 µM | DMS-273 33.3 µM | HOP-18 > 100 µM | KM-20L2 73.1 µM | LXFL 529 25.1 µM | SNB-78 48.3 µM | XF498 10.5 µM

On1c(-c2ccccc2)c(-c2ccccc2N2CCCC2)c2ccccc21
inactive: DLD-1 > 100 µM | DMS-114 47.2 µM | DMS-273 > 100 µM | HOP-18 > 100 µM | KM-20L2 > 100 µM | SNB-78 > 100 µM | XF498 > 100 µM

Cc1ccc(NC(=O)/C(=N/NC(=O)C[N+](C)(C)C)c2nc3ccccc3nc2O)cc1
inactive: DLD-1 > 100 µM | DMS-114 > 100 µM | DMS-273 > 100 µM | HOP-18 > 100 µM | KM-20L2 > 100 µM | LXFL 529 > 100 µM | RXF 631 > 100 µM | SNB-78 > 100 µM

CC(=O)OCC1OC(Sc2ccccn2)C=CC1OC(C)=O (configuration not stated)
inactive: DLD-1 > 100 µM | DMS-114 > 100 µM | DMS-273 > 100 µM | HOP-18 > 100 µM | KM-20L2 > 100 µM | LXFL 529 > 100 µM | XF498 > 100 µM

N#Cc1cc([N+](=O)[O-])ccc1NC(=O)/C(=N/N)C(C(=O)c1ccc(Cl)c(Cl)c1)C1OC(=O)c2ccccc21 (configuration not stated)
inactive: DLD-1 35 µM | DMS-114 28.4 µM | LXFL 529 43 µM | SNB-78 75 µM

Cc1cc2c(c(C(N)=O)c1C)-c1cccc(Cl)c1C2=O
inactive: DLD-1 > 100 µM | DMS-114 > 100 µM | DMS-273 > 100 µM | KM-20L2 > 100 µM | LXFL 529 > 100 µM | RXF 631 > 100 µM | SNB-78 > 100 µM | XF498 > 100 µM

Cc1cc(N)c(C)c2c1[nH]c1ccc(O)cc12
inactive: DMS-114 > 10 µM | DMS-273 > 100 µM | HOP-18 > 100 µM | SNB-78 > 100 µM | XF498 56.4 µM

CN1C(c2ccccc2)CC(O)CC1c1ccccc1 (configuration not stated)
inactive: DLD-1 > 100 µM | DMS-114 > 100 µM | DMS-273 > 100 µM | KM-20L2 > 100 µM | LXFL 529 > 100 µM | SNB-78 > 100 µM

COC(=O)[C@]12CSCN1C(=O)C(C(C)=O)=NN2C(=O)[C@](OC)(c1ccccc1)C(F)(F)F
inactive: DMS-114 > 100 µM | DMS-273 > 100 µM | KM-20L2 > 100 µM | LXFL 529 > 100 µM | SNB-78 > 100 µM | XF498 > 100 µM

CC[n+]1c(/C=C/c2cc(C(=O)OC)n3c2sc2ccccc23)sc2ccccc21
inactive: DMS-114 19.2 µM | DMS-273 17.6 µM | KM-20L2 17.8 µM | LXFL 529 13.8 µM | XF498 13.3 µM

Brc1ccc(N2C[N+](c3ccc(Br)cc3)=NC(c3ccccc3)=N2)cc1.[O-][Cl+3]([O-])([O-])[O-]
inactive: DLD-1 59.8 µM | DMS-114 25.1 µM | DMS-273 50.1 µM | HOP-18 > 100 µM | KM-20L2 70.5 µM | LXFL 529 45.2 µM | SNB-78 > 100 µM | XF498 > 100 µM

COc1cc(C2C(Cl)C(=O)N2NC(=O)c2ccc(N)cc2)ccc1O (configuration not stated)
inactive: DLD-1 29.4 µM | DMS-273 47.5 µM | KM-20L2 63.7 µM | LXFL 529 16.6 µM | SNB-78 44.2 µM | XF498 31.3 µM

CCOC(=O)C(=O)Nc1c(N(CC)CC)n2ccccc2nc1=O
inactive: DLD-1 > 100 µM | DMS-114 > 100 µM | DMS-273 > 100 µM | KM-20L2 > 100 µM | LXFL 529 > 100 µM | RXF 631 > 100 µM | SNB-78 > 100 µM | XF498 > 100 µM

CN(C)c1ccc(/C=N/C23CC4CC(CC(C4)C2)C3)cc1
inactive: DMS-114 > 100 µM | DMS-273 > 100 µM | KM-20L2 > 100 µM | SNB-78 > 100 µM

Cc1c(-c2nnc(-c3ccccc3)o2)c(=O)n(-c2ccccc2)n1C
inactive: DLD-1 > 100 µM | DMS-114 > 100 µM | DMS-273 > 100 µM | HOP-18 > 100 µM | KM-20L2 > 100 µM | LXFL 529 > 100 µM | SNB-78 > 100 µM | XF498 > 100 µM
